Laboratory results taken from US20240299292A1, “STABLE SEMI-SOLID CHEWABLE GEL COMPOSITIONS AND METHODS OF MAKING AND USING THEREOF” (Seattle Gummy Company, priority 2021, published 2024).

What was measured:
[1] = ITC association constant of cetirizine-β-cyclodextrin complex; format: binding; conditions: beta vs alpha and gamma cyclodextrin
From the text: Either the phenyl group or the 4-chlorophenyl group fit inside the ring structure. The inside cavity of cylcodextrins is largely hydrophobic which is favorable for aromatic systems that are also hydrophobic. The formation of the chelate structure is […] favorable due to electrostatic interactions of the pi system of the aromatic moiety with in the hydrophobic cavity and electronic interaction with the hydrogen atoms and […]. It is these electronic interactions between these systems of the cyclodextrin and the pi system that gives the favorable heat of formation.

[2] = ITC measurements; cited from earlier work
[3] = ITC measurements; cited from earlier work; remark: listed apart in the source
[4] = ITC measurements; cited from earlier work; remark: listed apart in the source

O=C(O)COCCN1CCN(C(c2ccccc2)c2ccc(Cl)cc2)CC1 (stereo not shown) [cetirizine]
formation constant of beta cyclodextrin complex relative to alpha and gamma cyclodextrin [1]: nearly four times | association constant K(a), cetirizine-β-cyclodextrin complex [2]: 5641 ± 358 M⁻¹ | association constant K(a), cetirizine-α-cyclodextrin complex [3]: 1434 ± 60 M⁻¹ | association constant, cetirizine-γ-cyclodextrin complex [4]: 1200 ± 50 M⁻¹
